Patent publication US11672802B2, “Induction of immune tolerance by using methotrexate” (Genzyme Corporation, priority 2011, dated 2023)
“Also recorded” adds a separate entry of the source.

Legend:
anti-mATG IgG = experiment: Anti-mATG (anti-rabbit) IgG ELISA titers in mice treated with mATG; type: in vivo, C57BL/6 mice; design: reduction of anti-mATG antibody responses, area under the effect curves / reduction of anti-mATG IgG titers, area under the effect curves / reduction of anti-mATG IgG titers: concentration or dose not given beside the values
Description: (§1) The levels of anti-mATG IgG in mouse serum were analyzed by enzyme linked immunosorbent assay (ELISA). […] End-point titers were defined as the […] dilution that averages above an absorbance of 0.100 using Softmax software (Molecular Devices, Sunnyvale, Calif., USA).

anti-rhGAA IgG = experiment: Anti-rhGAA IgG ELISA titers in mice treated with rhGAA; type: in vivo; settings: for anti-rhGAA titers: IL-10 knockout animals, rhGAA and methotrexate
Description: Recombinant human alglucosidase alfa (rhGAA, marketed by Genzyme Corp. as Myozyme®) was used as a formulated drug product. Mice were treated weekly with 20 mg/kg of rhGAA by bolus tail vein injection unless stated differently. All mice were treated prophylactically with 5 to 30 mg/kg diphenhydramine (Baxter Healthcare Corporation, Deerfield, Ill.) intraperitoneally prior to rhGAA administration. Control animals were treated intravenously with either sterile 0.9% saline or rhGAA-formulation buffer. Methotrexate treatment
Mice were bled 4-6 days following rhGAA treatment and specific IgG was measured by ELISA. […] Endpoint titers were defined as the reciprocal of the sample dilution resulting in an absorbance value of 0.2 using Softmax software (Molecular Devices, Sunnyvale, Calif.).
C57Bl/6 mice were treated with one 20 mg/kg intravenous dose of rhGAA (Genzyme Corporation), 3 consecutive intraperitoneal doses of 5 mg/kg methotrexate (APP Pharmaceuticals, LLC), and either 1D11 or 13C4 at 5 mg/kg (Genzyme Corporation) for 3 doses every other day. Methotrexate, 1D11, and 13C4 treatment commenced with rhGAA injections. Spleens were collected 7 days after treatment initiation and were processed as described above for B cells, culture and flow analysis. Additionally, rhGAA titer data was obtained by treating animals as described above, with rhGAA dosed weekly over 12 weeks, methotrexate dosed for either 1 or 3 cycles, and 1D11 or 13C4 dosed 3 times a week every other day for 12 weeks. Serum samples were collected every 2 weeks for ELISA analysis.

[1] = Circulating mATG levels (mATG-specific IgG ELISA); type: in vivo, mice
Description: Mouse serum was determined by ELISA. […] Following blocking with 0.5% BSA (high purity), standard controls and serum samples were diluted as necessary and added in duplicate to the wells of the coated plates and incubated at 36-38° C. for 1 hour with gentle shaking. […] Final concentrations were interpolated off the standard curve. It was predetermined that the measurement of mATG-specific IgG by this method were only modestly affected by titers of anti-mATG IgG that were greater than 218,000.

[2] = test system: CD4+ and CD8+ T cells, T regulatory cells, B cells; experiment: Flow cytometry of lymphocyte populations in mATG-treated mice; type: in vivo, C57BL/6 mice
Description: For splenocyte and lymph node cell preparations single-cell suspensions were generated from harvested mouse spleens or inguinal and mesenteric lymph nodes by homogenization between frosted glass slides into PBS containing 2% FCS. For splenocyte preparations, red blood cells were lysed by 1-2 minute incubation with a red blood cell lysis solution (BD Biosciences, San Diego, Calif.). Blood was isolated by retro-orbital bleeding and cell preparations were performed by lysing red blood cells with red blood cell lysing solution (BD Biosciences) for 20-30 minutes. For all tissue preparations, live cells were enumerated using the ViCell automated counter (Beckman Coulter, Fullerton, Calif.). Following isolation, all cell preparations were washed with PBS/2% FCS prior to use in the assays described below.
For evaluation of cell populations within different tissues, single cell suspensions of the tissues were incubated with fluorochrome-conjugated antibodies that included anti-mouse CD4, CD8, CD25, CD44, CD62L (all antibodies from BD Biosciences or eBioscience, San Diego, Calif.). Intracellular Foxp3 expression analysis was performed according to the anti-Foxp3 manufacturer's protocol (eBiosciences, San Diego, Calif.). Following incubation with the antibodies, cells were washed and analyzed by flow cytometry (FACSCanto, BD Biosciences and FCS Express software, De Novo Software, Los Angeles, Calif.).

anti-mATG antibody = experiment: Anti-mATG titers in cardiac allograft transplant mice; type: in vivo; settings: seven days following transplant, mice treated with methotrexate and mATG
Description: Polyclonal antibody mATG was administered as an intraperitoneal injection of 5 mg/kg every four weeks or as two 20 mg/kg doses given four days apart when in the transplant setting with the first dose given on the day of transplant (day 0).
as §1
C57BL/6 and BALB/c mice were obtained from Charles River (Kingston, N.Y. or Raleigh, N.C.) and used in these experiments between 8 and 13 weeks of age. The donor allogenic C57BL/6 mice were first anesthetized with an intraperitoneal injection of Ketamine (Fort Dodge Animal Health/Pfizer, Fort Dodge, Iowa) and Xylazine (Lloyd, Shenandoah, Iowa) and a median sternotomy was performed. […] The ascending aorta and pulmonary artery were then transected, the graft removed from the donor and the heart was stored in ice-cold saline until engraftment. A recipient mouse (Balb/c) was similarly anesthetized and prepped as described above for donor mice, except that the abdominal cavity was opened. […] Grafts were assessed by palpation 5-7 times per week for the first 30 day, and then 3-4 times per week until the end of the study.

[3] = test system: anti-allograft antibodies; experiment: Serum alloantibody levels (binding to allogeneic fibroblasts); type: in vivo, mice; settings: day 21, allogeneic heart transplant
Description: Serum alloantibody levels were determined by incubating serum from cardiac transplanted or normal mice at 1:50 dilutions with an SV40 transformed C57BL/6 fibroblast line (SVB6) followed by detection of fibrobast bound antibodies (alloantibodies) using FITC rabbit anti-mouse IgG (Dako, Carpinteria, Calif.) and by flow cytometric analysis. Geometric mean fluorescent intensities of serum stained fibroblasts were divided by isotype control stained fibroblasts to normalize alloantibody levels between experiments.

[4] = test system: cytokines (BAFF, TNF-alpha, MCP-1, IL-13, IL-6, IL-12); experiment: Serum cytokine levels in alemtuzumab-treated mice; type: in vivo, huCD52 Tg mice

CN(Cc1cnc2nc(N)nc(N)c2n1)c1ccc(C(=O)N[C@@H](CCC(=O)O)C(=O)O)cc1 [methotrexate, Methotrexate]
reduction of anti-mATG IgG titers (anti-mATG IgG; a single course of methotrexate): > 95%
anti-mATG (anti-rabbit IgG) titer lower than with mATG alone (anti-mATG IgG; mATG and a single cycle of methotrexate vs mATG alone): 100 fold
suppression of anti-mATG IgG responses, area under the effect curves (anti-mATG IgG; methotrexate 5 mg/kg ip six consecutive days, mATG 25 mg/kg x2, 3 days apart, through eight weeks): 95%
reduction of anti-mATG IgG titers, area under the effect curves (anti-mATG IgG; single course of methotrexate, mATG re-challenge after eight weeks rest): 99%
anti-mATG IgG titer (anti-mATG IgG; single cycle of methotrexate around first of five monthly mATG treatments): approximately 50,000
long-lived reduction in ADA (anti-mATG IgG; single cycle of methotrexate within first week of a protein therapy, over many months of dosing (summary statement)): greater than 95%
reduction of anti-mATG IgG titers, area under the effect curves (anti-mATG IgG; single cycle regimen, five monthly mATG (FIG. 4C)): 98%
reduction of anti-mATG IgG titers, area under the effect curves (anti-mATG IgG; three cycle regimen, five monthly mATG (FIG. 4C)): 69%
reduction of anti-mATG IgG titers, area under the effect curves (anti-mATG IgG; three cycle regimen, mATG re-challenge after eight weeks rest): 85%
anti-mATG antibody titers (anti-mATG IgG; three cycles of methotrexate 5 mg/kg with first three monthly mATG treatments): 816,000
reduction of anti-mATG antibody responses, area under the effect curves (anti-mATG IgG; three cycles of methotrexate, five monthly mATG (FIG. 4A)): 79%
anti-rhGAA responses (anti-rhGAA IgG; C57BL/6 wild-type, rhGAA and three cycles methotrexate, weeks 4, 6 and 9): decreased
anti-rhGAA titers (anti-rhGAA IgG; week 9): slight decrease
anti-rhGAA titers (anti-rhGAA IgG; weeks 4 and 6): not decreased
duration of control of anti-rhGAA responses (anti-rhGAA IgG; single cycle of three daily doses of 5 mg/kg methotrexate at week 1): at least 20 weeks
animals exhibiting high anti-rhGAA titers (anti-rhGAA IgG; week 6, rhGAA alone, rhGAA + methotrexate, or with 5 mg/kg 1D11 or 13C4): none
circulating mATG levels ([1]; heart transplant model, seven days after first mATG administration, mATG alone or with methotrexate): significantly higher
levels of circulating mATG ([1]; months 3 and 5 of monthly mATG, alone or with single cycle methotrexate 5 mg/kg x3): measurable levels
levels of circulating CD4+ and CD8+ T cells ([2]; after fifth monthly mATG treatment, mATG alone or with one cycle of methotrexate): significantly depleted
depletion of CD4+, CD8+, T regulatory T cells and total CD19+ B cells ([2]; methotrexate alone, animals receiving an allogeneic transplant): did not deplete
depletion of CD4+, CD8+, T regulatory T cells and total CD19+ B cells ([2]; normal animals, blood and spleen): does not deplete
percentage of T regulatory cells in spleen and blood ([2]; single cycle of methotrexate, after fifth monthly mATG treatment): enhanced the ability of mATG to increase the percentage of T regulatory cells
absolute number of activated follicular and activated transitional 3 B cells ([2]; spleen, single cycle of methotrexate, around fifth mATG dose): no statistically significant decreases
anti-rabbit IgG antibody titers (anti-mATG antibody): significantly lower
anti-allograft antibody (alloantibody) levels [3]: significantly reduce; also recorded: significantly lower
levels of pro-inflammatory cytokines MCP-1, IL-13, IL-6 and IL-12 ([4]; 24 hours after fifth alemtuzumab dose, methotrexate 5 mg/kg three days at first dose): decreased
TNF-alpha levels ([4]; methotrexate 2 mg/kg, one week after second cycle of alemtuzumab): statistically significant increase
BAFF levels ([4]; serum, 24 hours after 5th dose of alemtuzumab, with vs without methotrexate): no difference
